{"source": "patent US9119879B2", "about": "“Oral care compositions comprising a quinone and a further antimicrobial agent” (Colgate-Palmolive Company, priority 2010, dated 2015)", "key": {"[1]": {"tested_on": "A. viscosus biofilm", "assay": "Single species A. viscosus biofilm assay (Biofilm Eradication Concentration, BEC50)", "assay_type": "cell-based", "settings": "for BEC50 of Active + 50 ppm TBHQ: active combined with 50 ppm TBHQ; for BEC50 of Active Alone: lowest concentration with greater than 50% reduction in biofilm biomass relative to control, TBHQ tested at 50 ppm", "protocol": "TBHQ and a series of actives were tested in single species of A. viscosus biofilm assay."}, "[2]": {"tested_on": "A. viscosus", "assay": "Minimum inhibitory concentration (MIC) of TBHQ", "assay_type": "cell-based"}, "[3]": {"tested_on": "P. gingivalis", "assay": "Minimum inhibitory concentration (MIC) of TBHQ", "assay_type": "cell-based"}, "[4]": {"tested_on": "F. nucleatum", "assay": "Minimum inhibitory concentration (MIC) of TBHQ", "assay_type": "cell-based"}, "[5]": {"tested_on": "common pathogens", "assay": "Antimicrobial activity relative to known antimicrobial agents", "assay_type": "cell-based"}, "[6]": {"tested_on": "PGE2", "assay": "Anti-inflammatory efficacy in cells triggered by Heat Killed P. gingivalis (HKPG): PGE2 level", "assay_type": "cell-based, human", "protocol": "(§1) The anti-inflammatory efficacy of TBHQ in neat solution against several inflammation cytokines was evaluated. Human fibroblast (HEPM) cells or human macrophage (U937) cells were used in these tests. Inflammation was triggered by Heat Killed P. gingivalis (HKPG). TBHQ at various doses was co-incubated with cells treated with HKPG, and the levels of inflammatory markers were observed."}, "[7]": {"tested_on": "IL-1b", "assay": "Anti-inflammatory efficacy in cells triggered by HKPG: IL-1b level", "assay_type": "cell-based, human", "protocol": "as §1"}, "[8]": {"tested_on": "IL-6", "assay": "Anti-inflammatory efficacy in cells triggered by HKPG: IL-6 level", "assay_type": "cell-based, human", "protocol": "as §1"}, "[9]": {"tested_on": "TNF-α", "assay": "Anti-inflammatory efficacy in cells triggered by HKPG: TNF-α level", "assay_type": "cell-based, human", "protocol": "as §1"}, "[10]": {"settings": "TBHQ 10 ppm, HKPG-treated cells"}, "[11]": {"settings": "TBHQ 100 ppm, HKPG-treated cells"}}}
{"smiles": "[Cl][Sn][Cl]", "note": "[Stannous chloride]", "values": [{"measurement": "BEC50 of Active + 50 ppm TBHQ", "setting": "[1]", "result": 39, "unit": "ppm"}, {"measurement": "BEC50 of Active Alone", "setting": "[1]", "result": 156.3, "unit": "ppm"}]}
{"smiles": "CC(C)(C)c1cc(O)ccc1O", "note": "[TBHQ, 2-t-butyl-p-hydroquinone]", "values": [{"measurement": "MIC", "setting": "[2]", "result": 62.5, "unit": "ppm"}, {"measurement": "MIC", "setting": "[3]", "result": 62.5, "unit": "ppm"}, {"measurement": "MIC", "setting": "[4]", "result": 62.5, "unit": "ppm"}, {"measurement": "antimicrobial activity, times lower than known antimicrobial agent", "setting": "[5]; relative to cetylpyridinium chloride (CPC)", "result": 60, "unit": "times"}, {"measurement": "antimicrobial activity, times lower than known antimicrobial agent", "setting": "[5]; relative to triclosan", "result": 20, "unit": "times"}, {"measurement": "reduction in biofilm biomass", "setting": "[1]; TBHQ alone at 12.5 ppm", "result": "≤ 50", "unit": "%"}, {"measurement": "reduction in biofilm biomass", "setting": "[1]; TBHQ alone at 50 ppm", "result": "≤ 50", "unit": "%"}, {"measurement": "BEC50", "setting": "[1]; Table 3, TBHQ at 12.5 ppm, alone or with zinc oxide slurry", "result": "Not measurable"}, {"measurement": "BEC50 of Active Alone", "setting": "[1]", "result": "Not measurable"}, {"measurement": "PGE2 level", "setting": "[6]; TBHQ 0.9 ppm, HKPG-treated cells", "result": 1323, "unit": "pg/mL"}, {"measurement": "PGE2 level", "setting": "[6]; TBHQ 1.8 ppm, HKPG-treated cells", "result": 1378, "unit": "pg/mL"}, {"measurement": "PGE2 level", "setting": "[6]; TBHQ 3.9 ppm, HKPG-treated cells", "result": 1327, "unit": "pg/mL"}, {"measurement": "PGE2 level", "setting": "[6]; TBHQ 7.8 ppm, HKPG-treated cells", "result": 1563, "unit": "pg/mL"}, {"measurement": "PGE2 level", "setting": "[6]; TBHQ 15.6 ppm, HKPG-treated cells", "result": 1249, "unit": "pg/mL"}, {"measurement": "PGE2 level", "setting": "[6]; TBHQ 31.2 ppm, HKPG-treated cells", "result": 1124, "unit": "pg/mL"}, {"measurement": "PGE2 level", "setting": "[6]; TBHQ 62.5 ppm, co-incubated with HKPG-treated cells (HKPG alone 1743, untreated 1579)", "result": 764, "unit": "pg/mL"}, {"measurement": "IL-1b", "setting": "[7]; TBHQ 1 ppm, HKPG-treated cells (HKPG alone 85, untreated 63)", "result": 88, "unit": "pg/mL"}, {"measurement": "IL-1b", "setting": "[7]; [10]", "result": 55, "unit": "pg/mL"}, {"measurement": "IL-1b", "setting": "[7]; [11]", "result": 29, "unit": "pg/mL"}, {"measurement": "IL-6", "setting": "[8]; TBHQ 1 ppm, HKPG-treated cells (HKPG alone 1753, untreated 42)", "result": 405, "unit": "pg/mL"}, {"measurement": "IL-6", "setting": "[8]; [10]", "result": 100, "unit": "pg/mL"}, {"measurement": "IL-6", "setting": "[8]; [11]", "result": 23, "unit": "pg/mL"}, {"measurement": "TNF-α", "setting": "[9]; TBHQ 1 ppm, HKPG-treated cells (HKPG alone 194, untreated 15)", "result": 198, "unit": "pg/mL"}, {"measurement": "TNF-α", "setting": "[9]; [10]", "result": 68, "unit": "pg/mL"}, {"measurement": "TNF-α", "setting": "[9]; [11]", "result": 7, "unit": "pg/mL"}]}
{"smiles": "COc1cc(CCC(=O)CC(=O)CCc2ccc(O)c(OC)c2)ccc1O", "note": "[Tetra-hydrocurcumin]", "values": [{"measurement": "BEC50 of Active + 50 ppm TBHQ", "setting": "[1]", "result": 1.22, "unit": "ppm"}, {"measurement": "BEC50 of Active Alone", "setting": "[1]", "result": ">2500", "unit": "ppm"}]}
{"smiles": "Oc1cc(Cl)ccc1Oc1ccc(Cl)cc1Cl", "note": "[Triclosan, reference compound]", "values": [{"measurement": "BEC50 of Active + 50 ppm TBHQ", "setting": "[1]", "result": "<0.03", "unit": "ppm"}, {"measurement": "BEC50 of Active Alone", "setting": "[1]", "result": 0.49, "unit": "ppm"}]}
{"smiles": "O=C([O-])CC(O)(CC(=O)[O-])C(=O)[O-].O=C([O-])CC(O)(CC(=O)[O-])C(=O)[O-].[Zn+2].[Zn+2].[Zn+2]", "note": "[Zinc Citrate]", "values": [{"measurement": "BEC50 of Active + 50 ppm TBHQ", "setting": "[1]", "result": 19.5, "unit": "ppm"}, {"measurement": "BEC50 of Active Alone", "setting": "[1]", "result": 78.1, "unit": "ppm"}]}
